Activity calls are given as the source filed them. Cut-off read from the data, not from the text of the source, for most assays here: actives have a measured Kd and inactives only a lower limit.
Key:
[1] = biological target: Serine/threonine-protein kinase 10 (Homo sapiens, UniProt O94804)
[2] = biological target: 5'-AMP-activated protein kinase catalytic subunit alpha-1 (Homo sapiens, UniProt Q13131)
[3] = biological target: Serine/threonine-protein kinase MRCK beta (Homo sapiens, UniProt Q9Y5S2)
Sequence of Serine/threonine-protein kinase MRCK beta (Q9Y5S2 whole entry): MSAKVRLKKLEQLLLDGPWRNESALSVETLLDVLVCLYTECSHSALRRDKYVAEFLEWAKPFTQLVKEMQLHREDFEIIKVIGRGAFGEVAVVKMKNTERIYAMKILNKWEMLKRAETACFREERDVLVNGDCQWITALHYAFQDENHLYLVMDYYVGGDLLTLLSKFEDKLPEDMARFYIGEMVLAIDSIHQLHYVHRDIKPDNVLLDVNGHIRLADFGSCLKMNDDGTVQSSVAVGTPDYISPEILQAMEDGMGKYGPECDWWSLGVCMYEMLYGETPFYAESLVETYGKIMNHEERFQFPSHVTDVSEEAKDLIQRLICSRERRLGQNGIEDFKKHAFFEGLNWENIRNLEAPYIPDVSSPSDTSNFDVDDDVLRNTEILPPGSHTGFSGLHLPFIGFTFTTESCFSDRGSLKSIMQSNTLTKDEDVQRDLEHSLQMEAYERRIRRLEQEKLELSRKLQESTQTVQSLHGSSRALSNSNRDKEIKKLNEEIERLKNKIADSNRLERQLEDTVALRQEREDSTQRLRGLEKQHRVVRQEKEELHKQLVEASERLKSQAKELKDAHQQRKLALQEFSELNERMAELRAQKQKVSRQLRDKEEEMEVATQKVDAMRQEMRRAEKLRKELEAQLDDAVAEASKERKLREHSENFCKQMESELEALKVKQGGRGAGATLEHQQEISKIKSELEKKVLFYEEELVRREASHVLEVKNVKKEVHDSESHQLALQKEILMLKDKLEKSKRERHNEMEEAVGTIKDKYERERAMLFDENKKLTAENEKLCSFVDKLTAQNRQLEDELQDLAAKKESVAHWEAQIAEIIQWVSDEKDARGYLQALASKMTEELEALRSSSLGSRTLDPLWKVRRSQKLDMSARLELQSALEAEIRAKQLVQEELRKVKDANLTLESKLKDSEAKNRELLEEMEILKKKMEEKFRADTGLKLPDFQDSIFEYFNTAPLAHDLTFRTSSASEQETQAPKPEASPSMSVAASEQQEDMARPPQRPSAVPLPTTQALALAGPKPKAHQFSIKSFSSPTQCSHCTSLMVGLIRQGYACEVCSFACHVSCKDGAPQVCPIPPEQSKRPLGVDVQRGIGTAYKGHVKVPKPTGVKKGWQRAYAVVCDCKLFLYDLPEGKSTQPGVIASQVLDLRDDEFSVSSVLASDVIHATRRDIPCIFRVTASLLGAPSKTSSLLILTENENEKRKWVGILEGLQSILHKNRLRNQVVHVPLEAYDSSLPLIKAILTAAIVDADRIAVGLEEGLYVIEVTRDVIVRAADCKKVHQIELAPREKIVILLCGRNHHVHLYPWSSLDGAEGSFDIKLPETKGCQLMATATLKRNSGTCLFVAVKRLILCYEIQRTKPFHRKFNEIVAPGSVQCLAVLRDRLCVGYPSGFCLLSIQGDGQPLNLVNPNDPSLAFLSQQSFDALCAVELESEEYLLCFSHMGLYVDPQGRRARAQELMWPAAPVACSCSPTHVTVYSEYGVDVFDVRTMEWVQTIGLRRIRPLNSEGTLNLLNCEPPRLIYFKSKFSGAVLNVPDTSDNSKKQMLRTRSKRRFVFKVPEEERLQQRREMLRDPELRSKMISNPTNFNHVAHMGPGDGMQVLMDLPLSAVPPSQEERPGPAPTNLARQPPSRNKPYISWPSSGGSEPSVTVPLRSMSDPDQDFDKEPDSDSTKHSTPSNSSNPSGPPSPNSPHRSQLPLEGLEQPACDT

[4] = biological target: Bone morphogenetic protein receptor type-1B (Homo sapiens, UniProt O00238)
Sequence of Bone morphogenetic protein receptor type-1B (O00238 whole entry): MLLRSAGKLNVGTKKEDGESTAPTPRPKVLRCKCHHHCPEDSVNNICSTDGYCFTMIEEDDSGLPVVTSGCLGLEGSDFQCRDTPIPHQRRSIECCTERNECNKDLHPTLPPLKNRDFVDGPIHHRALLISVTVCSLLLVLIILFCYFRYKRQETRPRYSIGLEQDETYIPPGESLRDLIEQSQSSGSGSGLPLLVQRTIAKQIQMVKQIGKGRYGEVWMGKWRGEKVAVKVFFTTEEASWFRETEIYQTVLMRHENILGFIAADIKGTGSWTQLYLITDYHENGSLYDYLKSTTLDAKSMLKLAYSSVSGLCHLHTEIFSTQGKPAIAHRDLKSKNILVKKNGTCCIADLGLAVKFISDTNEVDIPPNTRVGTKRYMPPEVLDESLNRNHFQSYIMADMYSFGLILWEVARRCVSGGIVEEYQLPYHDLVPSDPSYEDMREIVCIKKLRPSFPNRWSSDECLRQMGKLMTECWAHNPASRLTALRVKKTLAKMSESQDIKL

[5] = biological target: Dual specificity mitogen-activated protein kinase kinase 2 (Homo sapiens, UniProt P36507)
Sequence of Dual specificity mitogen-activated protein kinase kinase 2 (P36507 whole entry): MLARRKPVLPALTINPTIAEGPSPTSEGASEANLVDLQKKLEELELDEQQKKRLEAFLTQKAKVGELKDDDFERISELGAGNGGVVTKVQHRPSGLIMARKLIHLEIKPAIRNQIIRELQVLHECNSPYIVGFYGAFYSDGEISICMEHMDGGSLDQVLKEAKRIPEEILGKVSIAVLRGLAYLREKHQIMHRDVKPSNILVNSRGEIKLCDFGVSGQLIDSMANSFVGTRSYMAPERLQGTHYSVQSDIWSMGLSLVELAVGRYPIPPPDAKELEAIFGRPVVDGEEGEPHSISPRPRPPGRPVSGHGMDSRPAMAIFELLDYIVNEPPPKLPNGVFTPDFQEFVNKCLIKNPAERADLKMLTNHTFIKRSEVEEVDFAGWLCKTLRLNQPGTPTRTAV

[6] = biological target: T1, Serine/threonine-protein kinase LATS1 (Homo sapiens, UniProt O95835)
T1 sequence (O95835 whole entry): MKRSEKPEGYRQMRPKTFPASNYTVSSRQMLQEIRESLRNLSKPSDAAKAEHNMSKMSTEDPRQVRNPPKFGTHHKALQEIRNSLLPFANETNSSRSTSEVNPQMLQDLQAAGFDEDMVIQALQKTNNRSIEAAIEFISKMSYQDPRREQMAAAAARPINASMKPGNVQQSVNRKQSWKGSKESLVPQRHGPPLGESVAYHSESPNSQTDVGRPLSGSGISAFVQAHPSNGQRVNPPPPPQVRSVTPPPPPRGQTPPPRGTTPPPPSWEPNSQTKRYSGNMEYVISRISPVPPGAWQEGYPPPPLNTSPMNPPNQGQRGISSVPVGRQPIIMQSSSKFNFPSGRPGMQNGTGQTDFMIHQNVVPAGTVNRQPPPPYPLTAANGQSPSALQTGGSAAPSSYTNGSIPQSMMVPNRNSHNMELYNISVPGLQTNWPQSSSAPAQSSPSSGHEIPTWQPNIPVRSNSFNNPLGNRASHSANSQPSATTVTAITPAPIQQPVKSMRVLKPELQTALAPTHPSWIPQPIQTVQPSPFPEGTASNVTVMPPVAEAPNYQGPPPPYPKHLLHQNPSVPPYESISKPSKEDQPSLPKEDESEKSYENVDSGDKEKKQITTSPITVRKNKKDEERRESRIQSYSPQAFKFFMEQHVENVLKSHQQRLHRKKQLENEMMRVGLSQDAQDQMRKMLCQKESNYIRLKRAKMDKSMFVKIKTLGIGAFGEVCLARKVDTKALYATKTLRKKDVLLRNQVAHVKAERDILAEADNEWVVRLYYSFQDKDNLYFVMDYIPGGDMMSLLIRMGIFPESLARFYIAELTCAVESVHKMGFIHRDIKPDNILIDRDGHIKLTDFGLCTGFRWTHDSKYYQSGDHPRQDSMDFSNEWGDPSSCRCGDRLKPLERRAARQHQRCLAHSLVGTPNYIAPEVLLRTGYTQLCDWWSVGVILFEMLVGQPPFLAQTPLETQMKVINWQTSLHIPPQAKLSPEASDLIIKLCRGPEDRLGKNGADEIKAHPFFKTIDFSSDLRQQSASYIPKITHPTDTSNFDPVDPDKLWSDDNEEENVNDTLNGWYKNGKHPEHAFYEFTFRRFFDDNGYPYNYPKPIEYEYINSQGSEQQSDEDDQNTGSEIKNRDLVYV

[7] = biological target: Mitogen-activated protein kinase kinase kinase kinase 4 (Homo sapiens, UniProt O95819)
[8] = biological target: Structural maintenance of chromosomes protein 2 (Homo sapiens, UniProt O95347)
[9] = biological target: T2, Mitogen-activated protein kinase kinase kinase 3 (Homo sapiens, UniProt Q99759)
T2 sequence (Q99759 whole entry): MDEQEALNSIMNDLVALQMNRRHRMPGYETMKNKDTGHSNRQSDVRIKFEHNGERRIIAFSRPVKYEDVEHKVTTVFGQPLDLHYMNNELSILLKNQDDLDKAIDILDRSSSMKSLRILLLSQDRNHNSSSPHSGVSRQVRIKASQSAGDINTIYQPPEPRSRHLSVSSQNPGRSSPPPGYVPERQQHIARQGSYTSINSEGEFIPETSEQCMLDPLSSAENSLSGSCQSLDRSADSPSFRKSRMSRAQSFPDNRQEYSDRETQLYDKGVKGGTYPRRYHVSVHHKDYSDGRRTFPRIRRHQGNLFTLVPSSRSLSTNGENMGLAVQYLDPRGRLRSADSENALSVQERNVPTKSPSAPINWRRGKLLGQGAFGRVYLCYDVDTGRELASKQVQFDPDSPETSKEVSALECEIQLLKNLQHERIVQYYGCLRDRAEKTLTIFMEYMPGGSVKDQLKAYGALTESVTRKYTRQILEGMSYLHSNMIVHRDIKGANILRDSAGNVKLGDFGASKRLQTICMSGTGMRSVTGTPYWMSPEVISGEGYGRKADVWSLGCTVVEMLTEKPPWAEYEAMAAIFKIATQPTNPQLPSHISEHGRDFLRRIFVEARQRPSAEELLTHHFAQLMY

[10] = biological target: Mitogen-activated protein kinase kinase kinase 4 (Homo sapiens, UniProt Q9Y6R4)
Sequence of Mitogen-activated protein kinase kinase kinase 4 (Q9Y6R4 whole entry): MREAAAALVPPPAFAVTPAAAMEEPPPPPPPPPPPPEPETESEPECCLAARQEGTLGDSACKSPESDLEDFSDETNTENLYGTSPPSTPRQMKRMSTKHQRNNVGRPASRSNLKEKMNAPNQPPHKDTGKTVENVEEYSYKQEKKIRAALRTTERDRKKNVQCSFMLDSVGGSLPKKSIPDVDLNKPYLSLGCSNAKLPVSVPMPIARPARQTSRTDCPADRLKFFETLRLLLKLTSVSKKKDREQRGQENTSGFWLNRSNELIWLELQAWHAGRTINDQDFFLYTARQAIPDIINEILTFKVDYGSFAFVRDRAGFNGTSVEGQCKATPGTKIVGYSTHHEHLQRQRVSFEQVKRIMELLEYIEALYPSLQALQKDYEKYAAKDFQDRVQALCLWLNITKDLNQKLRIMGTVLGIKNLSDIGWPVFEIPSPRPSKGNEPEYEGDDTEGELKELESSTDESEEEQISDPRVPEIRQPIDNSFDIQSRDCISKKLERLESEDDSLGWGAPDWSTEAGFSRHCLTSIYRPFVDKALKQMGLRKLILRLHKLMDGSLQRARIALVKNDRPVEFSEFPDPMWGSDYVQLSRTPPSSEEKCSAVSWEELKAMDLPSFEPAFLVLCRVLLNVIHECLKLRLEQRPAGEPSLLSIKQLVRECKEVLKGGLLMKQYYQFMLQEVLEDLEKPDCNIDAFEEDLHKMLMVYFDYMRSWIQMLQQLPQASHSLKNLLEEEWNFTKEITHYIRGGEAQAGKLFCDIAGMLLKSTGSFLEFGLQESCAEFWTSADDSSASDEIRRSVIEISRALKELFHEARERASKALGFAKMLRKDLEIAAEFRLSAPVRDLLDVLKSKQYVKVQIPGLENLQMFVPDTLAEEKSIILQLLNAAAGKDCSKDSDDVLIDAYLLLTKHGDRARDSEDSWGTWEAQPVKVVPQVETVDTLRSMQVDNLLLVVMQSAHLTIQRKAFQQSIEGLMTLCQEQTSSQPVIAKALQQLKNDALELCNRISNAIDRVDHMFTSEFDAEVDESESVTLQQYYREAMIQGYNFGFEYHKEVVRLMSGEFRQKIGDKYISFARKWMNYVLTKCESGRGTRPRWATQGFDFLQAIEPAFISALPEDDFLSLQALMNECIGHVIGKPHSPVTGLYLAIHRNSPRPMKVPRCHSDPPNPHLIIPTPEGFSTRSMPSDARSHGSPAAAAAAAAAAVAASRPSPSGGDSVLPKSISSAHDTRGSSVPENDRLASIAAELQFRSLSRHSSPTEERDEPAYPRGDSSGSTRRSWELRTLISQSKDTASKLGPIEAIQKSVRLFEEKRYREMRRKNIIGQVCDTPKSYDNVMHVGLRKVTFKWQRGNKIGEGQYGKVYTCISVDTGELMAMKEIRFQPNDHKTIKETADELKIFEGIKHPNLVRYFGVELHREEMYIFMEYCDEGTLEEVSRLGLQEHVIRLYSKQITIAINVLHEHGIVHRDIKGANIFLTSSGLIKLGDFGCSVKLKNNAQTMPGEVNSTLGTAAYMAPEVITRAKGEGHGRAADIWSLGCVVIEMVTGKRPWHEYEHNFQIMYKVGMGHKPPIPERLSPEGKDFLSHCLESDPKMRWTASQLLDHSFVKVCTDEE

Pyridoxal kinase = biological target: T3, Pyridoxal kinase (Homo sapiens, UniProt O00764)
T3 sequence (O00764 whole entry): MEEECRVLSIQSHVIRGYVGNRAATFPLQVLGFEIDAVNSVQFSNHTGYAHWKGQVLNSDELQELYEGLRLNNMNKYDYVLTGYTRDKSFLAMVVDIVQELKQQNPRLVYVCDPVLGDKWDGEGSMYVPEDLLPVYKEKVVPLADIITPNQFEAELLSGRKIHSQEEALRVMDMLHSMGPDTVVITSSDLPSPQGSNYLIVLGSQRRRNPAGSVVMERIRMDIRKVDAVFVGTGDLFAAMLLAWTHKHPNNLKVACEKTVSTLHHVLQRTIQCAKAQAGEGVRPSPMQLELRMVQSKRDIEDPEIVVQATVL

[11] = biological target: Mitogen-activated protein kinase kinase kinase 1 (Homo sapiens, UniProt Q13233)
[12] = biological target: T4, Dual specificity mitogen-activated protein kinase kinase 3 (Homo sapiens, UniProt P46734)
T4 sequence (P46734 whole entry): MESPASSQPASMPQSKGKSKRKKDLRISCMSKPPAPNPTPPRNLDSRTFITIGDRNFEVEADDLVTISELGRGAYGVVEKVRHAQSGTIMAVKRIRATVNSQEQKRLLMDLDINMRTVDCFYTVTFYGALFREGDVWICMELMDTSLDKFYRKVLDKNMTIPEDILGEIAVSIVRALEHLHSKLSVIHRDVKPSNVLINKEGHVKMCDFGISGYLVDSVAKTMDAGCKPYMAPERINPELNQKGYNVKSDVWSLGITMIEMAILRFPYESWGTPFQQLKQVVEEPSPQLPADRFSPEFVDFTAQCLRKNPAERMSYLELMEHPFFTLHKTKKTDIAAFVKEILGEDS
Note: in the data inactive means no Kd found up to 30 µM.

Sequence of 5'-AMP-activated protein kinase catalytic subunit alpha-1 (Q13131 whole entry): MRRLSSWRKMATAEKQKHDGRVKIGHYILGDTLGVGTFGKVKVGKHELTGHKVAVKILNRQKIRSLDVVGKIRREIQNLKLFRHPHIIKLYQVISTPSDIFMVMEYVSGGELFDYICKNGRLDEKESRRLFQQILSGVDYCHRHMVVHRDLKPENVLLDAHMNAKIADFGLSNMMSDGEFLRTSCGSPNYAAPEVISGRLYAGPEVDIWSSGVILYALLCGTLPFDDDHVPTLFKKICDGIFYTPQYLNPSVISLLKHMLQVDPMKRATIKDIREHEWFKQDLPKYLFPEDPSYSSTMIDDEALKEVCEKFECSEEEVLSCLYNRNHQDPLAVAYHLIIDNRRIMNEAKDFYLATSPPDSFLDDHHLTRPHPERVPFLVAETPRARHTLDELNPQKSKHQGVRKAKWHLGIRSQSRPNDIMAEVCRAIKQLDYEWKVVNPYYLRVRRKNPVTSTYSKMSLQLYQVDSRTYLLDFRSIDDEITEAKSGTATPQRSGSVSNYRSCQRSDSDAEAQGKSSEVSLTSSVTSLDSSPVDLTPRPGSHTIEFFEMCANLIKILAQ

Kd [1] | Kd [2] | Kd [3] | Kd [4] | Kd [5] | Kd [6] | Kd [7] | Kd [8] | Kd [9] | Kd [10] | Kd (Pyridoxal kinase) | Kd [11] | Kd [12] | Compound
> 30 µM (inactive) | > 30 µM (inactive) | > 30 µM (inactive) | > 30 µM (inactive) | > 30 µM (inactive) | > 30 µM (inactive) | > 30 µM (inactive) | > 30 µM (inactive) | > 30 µM (inactive) | > 30 µM (inactive) | > 30 µM (inactive) | > 30 µM (inactive) | > 30 µM (inactive) | COc1cccc2cc(-c3nc([C@H]4CC[C@H](C(=O)O)CC4)n4ncnc(N)c34)[nH]c12 [OSI-027]
> 30 µM (inactive) | > 30 µM (inactive) | > 30 µM (inactive) | > 30 µM (inactive) | > 30 µM (inactive) | > 30 µM (inactive) | > 30 µM (inactive) | > 30 µM (inactive) | > 30 µM (inactive) | > 30 µM (inactive) | > 30 µM (inactive) | > 30 µM (inactive) | > 30 µM (inactive) | O=S(=O)(c1cccc2c(O)nccc12)N1CCCNCC1 [HYDROXYFASUDIL]
> 30 µM (inactive) | > 30 µM (inactive) | > 30 µM (inactive) | > 30 µM (inactive) | > 30 µM (inactive) | > 30 µM (inactive) | > 30 µM (inactive) | > 30 µM (inactive) | > 30 µM (inactive) | > 30 µM (inactive) | > 30 µM (inactive) | > 30 µM (inactive) | > 30 µM (inactive) | CCc1cc2c(cc1N1CCC(N3CCOCC3)CC1)C(C)(C)c1[nH]c3cc(C#N)ccc3c1C2=O [ALECTINIB]
> 30 µM (inactive) | > 30 µM (inactive) | > 30 µM (inactive) | > 30 µM (inactive) | > 30 µM (inactive) | 2.16 µM (active) | > 30 µM (inactive) | > 30 µM (inactive) | > 30 µM (inactive) | > 30 µM (inactive) | > 30 µM (inactive) | > 30 µM (inactive) | > 30 µM (inactive) | COc1cc(Nc2ncc(F)c(Nc3ccc4c(n3)N(COP(=O)(O)O)C(=O)C(C)(C)O4)n2)cc(OC)c1OC [FOSTAMATINIB]
> 30 µM (inactive) | > 30 µM (inactive) | > 30 µM (inactive) | > 30 µM (inactive) | > 30 µM (inactive) | > 30 µM (inactive) | > 30 µM (inactive) | > 30 µM (inactive) | > 30 µM (inactive) | > 30 µM (inactive) | > 30 µM (inactive) | > 30 µM (inactive) | > 30 µM (inactive) | Cc1ccc(C(=O)Nc2ccc(Oc3cc4cnn(C)c4cc3-c3cn[nH]c3)c(F)c2)c(=O)n1-c1ccc(F)cc1 [MERESTINIB]
> 30 µM (inactive) | > 30 µM (inactive) | > 30 µM (inactive) | > 30 µM (inactive) | > 30 µM (inactive) | > 30 µM (inactive) | 4.17 µM (active) | > 30 µM (inactive) | > 30 µM (inactive) | > 30 µM (inactive) | > 30 µM (inactive) | > 30 µM (inactive) | > 30 µM (inactive) | c1cc(OCCN2CCCCC2)cc(-c2n[nH]c3ccc(-c4nc[nH]n4)cc23)c1 [CC-401]
> 30 µM (inactive) | > 30 µM (inactive) | > 30 µM (inactive) | > 30 µM (inactive) | > 30 µM (inactive) | > 30 µM (inactive) | > 30 µM (inactive) | > 30 µM (inactive) | > 30 µM (inactive) | > 30 µM (inactive) | > 30 µM (inactive) | > 30 µM (inactive) | > 30 µM (inactive) | C[C@@H]1COC(Nc2ccc3ncnc(Nc4ccc(OCc5nccs5)c(Cl)c4)c3c2)=N1 [VARLITINIB]
> 30 µM (inactive) | > 30 µM (inactive) | > 30 µM (inactive) | > 30 µM (inactive) | > 30 µM (inactive) | > 30 µM (inactive) | > 30 µM (inactive) | > 30 µM (inactive) | > 30 µM (inactive) | > 30 µM (inactive) | > 30 µM (inactive) | > 30 µM (inactive) | > 30 µM (inactive) | COc1cc2nccc(Oc3ccc(NC(=O)C4(C(=O)Nc5ccc(F)cc5)CC4)cc3)c2cc1OC [CABOZANTINIB]
> 30 µM (inactive) | > 30 µM (inactive) | > 30 µM (inactive) | > 30 µM (inactive) | > 30 µM (inactive) | > 30 µM (inactive) | > 30 µM (inactive) | > 30 µM (inactive) | > 30 µM (inactive) | > 30 µM (inactive) | > 30 µM (inactive) | > 30 µM (inactive) | > 30 µM (inactive) | CNC(=O)c1cccc(-c2ccc3c(N4CCOC[C@@H]4C)nc(N4CCOC[C@@H]4C)nc3n2)c1 [VISTUSERTIB]
> 30 µM (inactive) | > 30 µM (inactive) | > 30 µM (inactive) | > 30 µM (inactive) | > 30 µM (inactive) | > 30 µM (inactive) | > 30 µM (inactive) | > 30 µM (inactive) | > 30 µM (inactive) | > 30 µM (inactive) | > 30 µM (inactive) | > 30 µM (inactive) | > 30 µM (inactive) | S=C(NCc1ccc2c(c1)OCO2)N1CCN(c2ncnc3c2oc2ccccc23)CC1 [AMUVATINIB]

Compound | Kd [1] | Kd [2] | Kd [3] | Kd [4] | Kd [5] | Kd [6] | Kd [7] | Kd [8] | Kd [9] | Kd [10] | Kd (Pyridoxal kinase) | Kd [11] | Kd [12]
COCCN1CCN(Cc2ccc(-c3n[nH]c4c3C(=O)c3c(NC(=O)NN5CCOCC5)cccc3-4)cc2)CC1 [RGB-286638] | > 30 µM (inactive) | > 30 µM (inactive) | 1.02 µM (active) | > 30 µM (inactive) | > 30 µM (inactive) | > 30 µM (inactive) | 0.127 µM | > 30 µM (inactive) | > 30 µM (inactive) | > 30 µM (inactive) | > 30 µM (inactive) | > 30 µM (inactive) | > 30 µM (inactive)
